One data set relates to MDBK cells. Nature of the data set: Cytotoxicity (MTT) in MDBK cells. Format: cell-based. On the procedure: (§1) Compound toxicity assay. Compound cytotoxicity was assessed by using an MTT based toxicity assay kit (Sigma, St. Louis, Mo.) as described elsewhere. Briefly, cells cultured under conditions identical to those used in the viral assay were incubated with various concentrations of the compound for 72 hours. MTT was added to the media to a final concentration of 0.5 mg/ml and was incubated for 3 hours at 37 C. After the culture media was removed, formazan crystals was dissolved by adding 150 ul of solubilization solution (10% Triton X-100, 0.1N HCl in anhydrous isopropanol) for 15-30 minutes. The absorbance of the dissolved formazan was measured spectrophotometrically at 570 nm with absorbance at 690 nm as background.

In data set [1] the test system is BVDV (NADL strain). Format: cell-based, Bovine viral diarrhea virus.
For data set [2], the system named is Tacaribe virus (21573 strain). The class given is cell-based.
The nature of data set [3]: Cytotoxicity (CC50) in the HCV infection test. The following applies: Table 3, HCV infection test. Format: cell-based.
For a further data set, the system named is Ebola (Zaire strain). The class given is cell-based, Ebola virus.
For data set [4] the following is noted: in vivo, po, 100 mg/kg.
In the next data set the test system is BHK cells. The experiment in a line: Cytotoxicity (MTT) in BHK cells. Format: cell-based. On the procedure: as §1
Another data set concerns HCV. The experiment in a line: HCV infection, intracellular HCV RNA level by real-time RT-PCR. The class given is cell-based, hepatitis C virus. Conditions: for EC50: read-out: EC50 against HCV infection; for EC90: read-out: EC90 against HCV infection. The source says: Another embodiment of the present invention is the use of imino sugar glucosidase inhibitors in the treatment of HCV. Imino sugar glucosidase inhibitors show equal or better efficacy than celgosivir.
On the technique in general: In qPCR the cycle at which signal appears reflects the starting amount.

The subject of data set [5] is Junin virus (JUNV, Romero strain). Format: cell-based.
The test system of data set [6] is Dengue virus (DV) serotype 2, New Guinea C. Nature of the data set: microbe, parasite or virus in culture. The class given is cell-based.
Data set [7] is described as follows: Cytotoxicity (MTT) in BHK cells. Format: cell-based. Conditions: hamster; BHK cells (for Dengue and West Nile virus), 3 days treatment. Here is the method: as §1
Data set [8] has as its system West Nile virus (2002 Texas isolate). Nature of the data set: microbe, parasite or virus in culture. The class given is cell-based.
For data set [9], the system named is BVDV (NADL strain). Conditions: tissue culture, test viruses such as BVDV and DV; cited from earlier work.
The mark [10] stands for this setting: BHK cells (for Dengue and West Nile virus), 3 days treatment, read-out: CC50.
Where [11] appears, read: Table 5, read-out: CC50 in BHK cells.

Read-outs that look alike come from different tables or passages of the source.

These results are taken from US9040488B2, “Imino sugar derivatives demonstrate potent antiviral activity and reduced toxicity” (Baruch S. Blumberg Institute, priority 2008, dated 2015).

As for `CC(=O)O.OC[C@@H]1[C@@H](O)[C@H](O)[C@@H](O)CN1CCCCCCC1(O)CCCCC1` [CM-9-70], the half-maximal cytotoxic concentration (CC50) – broadly, the concentration that lowers cell viability or growth by half – in the data set on MDBK cells was > 500 µM. Moreover, in the data set with BVDV (NADL strain) [1], the response was half-maximal at 18 µM (EC50); the EC90 (in general, the concentration at which the effect reaches the 90% level) was found to be 82.5 µM; the anti-BVDV activity result is listed as “retains similar antiviral activity”.
For `CC(=O)O.CC1CCC(OCCCCCCN2C[C@H](O)[C@@H](O)[C@H](O)[C@H]2CO)CC1` (stereo partly shown) [CM-9-78], the EC50 (usually the midpoint of the concentration-response curve) in data set [2] was 10000 nM; in the data set with Ebola (Zaire strain) it was 7.5 µM; in the data set on HCV, 5 µM; in the data set on BVDV (NADL strain) [1], 8.1 ± 3.4 µM; in data set [5], 2000 nM; in data set [6] (read-out: DV EC50) it was 6750 nM. The EC50 in [6] (read-out: Dengue EC50) was 6800 nM. Moreover, the EC90 is > 100 µM in data set [2]; > 100 µM in the data set on Ebola (Zaire strain); 160 µM in the data set with HCV; 59 ± 22 µM in the data set with BVDV (NADL strain) [1]; > 100 µM in data set [5]; 13000 nM in [6] (read-out: DV EC90). For the same compound, the EC90 in data set [6] (read-out: Dengue EC90) is 13000 nM. Also, the CC50 in data set [3] was > 500 µM; with vero cells it was > 500 µM; in the data set with BHK cells (setting [10]) it was > 100 µM; with BHK cells (setting [11]), > 40 µM; in the data set with MDBK cells it was > 500 µM. Moreover, the plasma concentration entry in [4] is on record as “above 30 μM”.
With `O[C@H]1[C@H](O)[C@@H](O)CN2CC[C@H](O)[C@H]12` [Castano., Castanospermin], in data set [3], the CC50 is > 500 µM. In addition, in the data set with HCV, the EC50 turned out to be 295 µM and the 90% effect concentration (EC90) is > 500 µM.
In the case of `CCCC(=O)O[C@H]1CN2CC[C@H](O)[C@@H]2[C@@H](O)[C@@H]1O` [Celgosivir, celgosivir], in data set [3], the CC50 was > 500 µM. Also, in the data set on HCV (Hepatitis C virus), the 50% effective concentration (EC50) amounted to 3.8 µM and the EC90 worked out at 100 µM.
For the compound `OC[C@H]1NC[C@H](O)[C@@H](O)[C@@H]1O` [DNJ, deoxynojirimycin, reference compound], the CC50 at 72 h in data set [7] was in the range of 20 to 100 µM. For the same compound, the EC50 was 500000 nM in data set [6] (Dengue virus, BHK, read-out: Dengue EC50) and > 500 µM in data set [8] (West Nile virus, BHK, read-out: West Nile EC50).
For the compound `CCCCN1C[C@H](O)[C@@H](O)[C@H](O)[C@H]1CO` [NBDNJ, N-butyl-DNJ, reference compound], the CC50 in the data set with BHK cells (setting [10]) lay in the range of 20 to 100 µM. Further, in [8] (read-out: West Nile EC50), the EC50 was > 100 µM.
As for `CCCCCCCCCN1C[C@H](O)[C@@H](O)[C@H](O)[C@H]1CO` [NNDNJ, N-nonyl-DNJ, reference compound], the EC50 in [2] was 3000 nM; with Ebola (Zaire strain) it was 12 µM; in the data set with HCV it was 2.5 µM; with BVDV (NADL strain) [1] it was 7.3 ± 0.4 µM; in data set [5], 700 nM; in [6] (read-out: Dengue EC50), 1000 to 4000 nM. The EC50 in data set [8] (read-out: West Nile EC50) came to 4 µM. Also, the EC90 in data set [2] is 70 µM; with Ebola (Zaire strain), 85 µM; with HCV it was > 500 µM; in the data set on BVDV (NADL strain) [1], 71 ± 7.1 µM; in data set [5] it was > 100 µM; in [6] (read-out: Dengue EC90), 3000 to 10000 nM. Moreover, the “potency compared with DNJ or short alkyl side chain DNJ derivatives such as NBDNJ” value in the data set on BVDV (NADL strain) [9] is 100 times. In addition, the CC50 was 280 µM in data set [3], 100 µM in the data set with vero cells, 20 to 100 µM in the data set on BHK cells (setting [10]) and 245 ± 134 µM in the data set with MDBK cells.
Consider `OC[C@@H]1[C@@H](O)[C@H](O)[C@@H](O)CN1CCCCCC1(O)CCCCC1` [OSL95-II, N-pentyl-(1-hydroxycyclohexyl)-DNJ, reference compound], for which the EC50 was determined as 29000 nM in data set [2]; 0.6 µM with Ebola (Zaire strain); 6 µM in the data set on HCV; 10.9 ± 2.7 µM in the data set with BVDV (NADL strain) [1]; 750 nM in data set [5]; 4000 nM in data set [6] (read-out: DV EC50). For the same compound, the values for the EC50 in data set [6] (read-out: Dengue EC50), in [8] (read-out: WNV EC50) and in [8] (read-out: West Nile EC50) were 4000 nM, 4.5 µM and 4.5 µM, respectively. The EC90 in [2] is > 100 µM; with Ebola (Zaire strain), 8 µM; with HCV, 125 µM; in the data set with BVDV (NADL strain) [1], > 100 µM; in [5] it was 68 µM; in data set [6] (read-out: DV EC90), 8700 nM. For the same compound, the EC90 in data set [6] (read-out: Dengue EC90) stood at 8700 nM. Also, the CC50 in data set [3] is > 500 µM; in the data set on vero cells it was > 500 µM; in the data set on BHK cells (setting [10]), > 100 µM; with BHK cells (setting [11]), > 100 µM; in the data set with MDBK cells, > 500 µM.
On to `CC(C)[C@@H]1CC[C@@H](C)C[C@H]1OCCCCCCN1C[C@H](O)[C@@H](O)[C@H](O)[C@H]1CO` [PBDNJ0801], for which the 50% cytotoxic concentration (CC50) in the data set with BHK cells (setting [10]) amounted to 80 µM; in the data set on BHK cells (setting [11]) it was 70 µM; with MDBK cells it was 235 ± 21 µM. Moreover, the EC50 in the data set on BVDV (NADL strain) [1] amounted to 1.6 ± 1.2 µM; in [6] (read-out: DV EC50), 100 nM; in data set [6] (read-out: Dengue EC50) it was 100 nM; in data set [8] (read-out: WNV EC50), 4.75 µM; in data set [8] (read-out: West Nile EC50), 4.75 µM. Moreover, the EC90 is 14.8 ± 3.9 µM in the data set on BVDV (NADL strain) [1]; 200 nM in [6] (read-out: DV EC90); 200 nM in [6] (read-out: Dengue EC90); 19 µM in [8] (read-out: WNV EC90); 19 µM in data set [8] (read-out: West Nile EC90).
As for `Cc1ccc(C)c(OCCCCCCN2C[C@H](O)[C@@H](O)[C@H](O)[C@H]2CO)c1` [PBDNJ0803], the EC50 in data set [2] turned out to be 2000 nM; with BVDV (NADL strain) [1] it was 3.7 ± 3.8 µM; in data set [5] it was 500 nM; in data set [6] (read-out: DV EC50), 100 nM; in [6] (read-out: Dengue EC50), 100 nM; in data set [8] (read-out: WNV EC50), 1.5 µM. In addition, the EC50 in data set [8] (read-out: West Nile EC50) stood at 1.5 µM. Further, the EC90 in data set [2] amounted to 75 µM; in the data set with BVDV (NADL strain) [1], 29.2 ± 29 µM; in [5], 2 µM; in data set [6] (read-out: DV EC90), 600 nM; in data set [6] (read-out: Dengue EC90), 600 nM; in data set [8] (read-out: WNV EC90), 20 µM. The EC90 in [8] (read-out: West Nile EC90) worked out at 20 µM. Further, the CC50 in the data set on vero cells is 300 µM; with BHK cells (setting [10]), 85 µM; with BHK cells (setting [11]), 75 µM; in the data set with MDBK cells it was 485 ± 21 µM. In data set [5], the “antiviral activity against Junin virus infection” value is on record as “most potent”.
On to `C[C@@H]1CCCCC1OCCCCCCN1C[C@H](O)[C@@H](O)[C@H](O)[C@H]1CO` (stereo partly shown) [PBDNJ0804], for which the EC50 amounted to 1500 nM in [2]; 0.5 µM in the data set on Ebola (Zaire strain); 3 ± 1.4 µM in the data set on BVDV (NADL strain) [1]; 450 nM in [5]; 75 nM in data set [6] (read-out: DV EC50); 80 nM in data set [6] (read-out: Dengue EC50). Besides, the EC50 in data set [8] (read-out: WNV EC50) and in data set [8] (read-out: West Nile EC50) was 3.5 µM each time. For the same compound, the EC90 was 50 µM in data set [2]; 5 µM in the data set with Ebola (Zaire strain); 13 ± 1.7 µM in the data set with BVDV (NADL strain) [1]; 0.9 µM in [5]; 600 nM in [6] (read-out: DV EC90); 600 nM in data set [6] (read-out: Dengue EC90). Also, the EC90 in data set [8] (read-out: WNV EC90) and in data set [8] (read-out: West Nile EC90) was 33 µM throughout. For the same compound, the CC50 is 500 µM in the data set with vero cells, 65 µM in the data set with BHK cells (setting [10]), 70 µM in the data set on BHK cells (setting [11]) and > 500 µM in the data set with MDBK cells. In addition, the “antiviral activity against Junin virus infection” value in data set [5] is “most potent”.
